Source: patent US10835542B2, “9-aminomethyl minocycline compounds and use thereof in treating community-acquired bacterial pneumonia (CABP)” (Paratek Pharmaceuticals, Inc., priority 2016, dated 2020)
Like-named read-outs stand apart in the source and are kept apart here.

Key:
cSSSI = assay: Phase 2 and Phase 3 studies in complicated skin and skin structure infection (cSSSI); format: in vivo, human
Streptococcus pneumoniae [1] = assay: Mouse model of lower respiratory tract infection; format: in vivo; details: infection caused by Streptococcus pneumoniae
Escherichia coli = assay: Clinical success at PTE by baseline pathogen, microITT; format: in vivo, human; details: N1 = 6 (Compound 1), 7 (Moxifloxacin)
[2] = Lung tissue versus plasma concentrations in mice; details: mouse
[3] = Food effect on plasma PK of a single 300 mg oral dose, healthy volunteers (4-period crossover); format: in vivo, human
Streptococcus pneumoniae [4] = format: in vivo, human; details: PTE, microITT
Staphylococcus aureus = format: in vivo, human; details: PTE, microITT
[5] = Phase 1 multiple oral dose (300, 450, 600 mg) study: plasma PK, healthy adult subjects; details: for exposure (dose-normalized AUC0-24) as % of that predicted if perfectly dose-proportional: 300 mg to 600 mg; for AUC(0-t): human, in vivo, po
Mycoplasma pneumoniae = assay: Clinical success at PTE by baseline pathogen, microITT; format: in vivo, human; details: N1 = 70 (Compound 1), 57 (Moxifloxacin)
Moraxella catarrhalis = assay: as above; format: in vivo, human; details: N1 = 4 (Compound 1), 1 (Moxifloxacin)
Klebsiella pneumoniae = assay: as above; format: in vivo, human; details: N1 = 13 (Compound 1), 13 (Moxifloxacin)
Chlamydophila pneumoniae = assay: as above; format: in vivo, human; details: N1 = 28 (Compound 1), 28 (Moxifloxacin)
[6] = Phase 1 multiple oral dose study: urine PK; format: in vivo, human
Procedure: Urine samples were only collected from a subset of subjects because analysis of urine PK was added by an amendment to the study protocol after the study was already underway.
Additional parameters Ae0-4, Ae4-8, Ae8-12, Ae12-24, and Ae0-24 were also calculated.

## CN(C)c1cc(CNCC(C)(C)C)c(O)c2c1C[C@H]1C[C@H]3[C@H](N(C)C)C(O)=C(C(N)=O)C(=O)[C@@]3(O)C(O)=C1C2=O [Compound 1, 9-[(2,2-dimethyl-propylamino)-methyl]-minocycline]
cSSSI; Phase 2 (219 subjects) and terminated Phase 3 (143 subjects)
  tolerability in cSSSI studies: well-tolerated
cSSSI; versus comparator linezolid
  efficacy in cSSSI studies: efficacy similar to an established comparator (linezolid)
Streptococcus pneumoniae [1]
  efficacy in mouse model of lower respiratory tract infection: effective
Escherichia coli
  Clinical Success n (%): 4 (66.7) n (%)
[2]
  Kp: 3.7 to 4.4
[3]; Treatment D
  between-subject variability in systemic exposure (CV) for Cmax and AUC: 42.6-44.4%
[3]; Treatments A, B and C
  between-subject variability in systemic exposure (CV) for Cmax and AUC: 22.4-29.2%
ITT population
  Total number of deaths: 8
Phase 3 CABP
  severity of gastrointestinal (GI) adverse events (vomiting, nausea, diarrhea, dyspepsia): mild
Safety population
  Subjects who died: 8 (2.1) n (%)
  Subjects with at least one Adverse Event (AE): 170 (44.5) n (%)
  Subjects with at least one Drug-Related Serious TEAE: 2 (0.5) n (%)
  Subjects with at least one Drug-Related TEAE: 39 (10.2) n (%)
  Subjects with at least one Serious TEAE: 23 (6.0) n (%)
  Subjects with at least one Serious TEAE Leading to Death: 8 (2.1) n (%)
  Subjects with at least one Serious TEAE Leading to Premature Discontinuation of Test Article: 10 (2.6) n (%)
  Subjects with at least one Severe TEAE: 25 (6.5) n (%)
  Subjects with at least one TEAE: 157 (41.1) n (%)
  Subjects with at least one TEAE Leading to Dose Interruption: 0 n (%)
  Subjects with at least one TEAE Leading to Premature Discontinuation of Study: 7 (1.8) n (%)
  Subjects with at least one TEAE Leading to Premature Discontinuation of Test Article: 21 (5.5) n (%)
  TEAE leading to study drug discontinuation: Diarrhoea: 0 n (%)
  TEAE leading to study drug discontinuation: Dyspepsia: 0 n (%)
  TEAE leading to study drug discontinuation: Gastrointestinal Disorders: 2 (0.5) n (%)
  TEAE leading to study drug discontinuation: Nausea: 1 (0.3) n (%)
  TEAE leading to study drug discontinuation: Vomiting: 2 (0.5) n (%)
  TEAE: Alanine Aminotransferase Increased: 14 (3.7) n (%)
  TEAE: Aspartate Aminotransferase Increased: 8 (2.1) n (%)
  TEAE: Clostridium Difficile Colitis: 0 n (%)
  TEAE: Clostridium Difficile Infection: 0 n (%)
  TEAE: Constipation: 9 (2.4) n (%)
  TEAE: Diarrhoea: 4 (1.0) n (%)
  TEAE: Dyspepsia: 4 (1.0) n (%)
  TEAE: Gamma-Glutamyltransferase Increased: 10 (2.6) n (%)
  TEAE: Headache: 8 (2.1) n (%)
  TEAE: Hypertension: 13 (3.4) n (%)
  TEAE: Insomnia: 10 (2.6) n (%)
  TEAE: Nausea: 9 (2.4) n (%)
  TEAE: Pseudomembranous Colitis: 0 n (%)
  TEAE: Vomiting: 10 (2.6) n (%)
  Total Number of AEs: 434
  Total Number of TEAEs: 376
Streptococcus pneumoniae [4]; Streptococcus pneumoniae MDRSP, N1 = 7 (Compound 1), 6 (Moxifloxacin)
  Clinical Success n (%): 7 (100.0) n (%)
Streptococcus pneumoniae [4]; Streptococcus pneumoniae Macrolide Resistant, N1 = 10 (Compound 1), 5 (Moxifloxacin)
  Clinical Success n (%): 10 (100.0) n (%)
Streptococcus pneumoniae [4]; Streptococcus pneumoniae PSSP, N1 = 26 (Compound 1), 22 (Moxifloxacin)
  Clinical Success n (%): 23 (88.5) n (%)
Streptococcus pneumoniae [4]; baseline pathogen Streptococcus pneumoniae, N1 = 43 (Compound 1), 34 (Moxifloxacin)
  Clinical Success n (%): 37 (86.0) n (%)
Staphylococcus aureus; Staphylococcus aureus MRSA, N1 = 0 (Compound 1), 1 (Moxifloxacin)
  Clinical Success n (%): 0 n (%)
Staphylococcus aureus; Staphylococcus aureus MSSA, N1 = 11 (Compound 1), 10 (Moxifloxacin)
  Clinical Success n (%): 8 (72.7) n (%)
Staphylococcus aureus; baseline pathogen Staphylococcus aureus, N1 = 11 (Compound 1), 11 (Moxifloxacin)
  Clinical Success n (%): 8 (72.7) n (%)
[5]; Day 1
  exposure (dose-normalized AUC0-24) as % of that predicted if perfectly dose-proportional: 76%
[5]; Day 5
  exposure (dose-normalized AUC0-24) as % of that predicted if perfectly dose-proportional: 88%
[5]; Day 1, 300 mg
  Cmax/Dose Geometric LS Means: 2.09 ng/mL/mg
[5]; Day 1, 450 mg
  Cmax/Dose Geometric LS Means: 1.81 ng/mL/mg
[5]; Day 1, 600 mg
  Cmax/Dose Geometric LS Means: 1.54 ng/mL/mg
[5]; Day 5, 300 mg
  Cmax/Dose Geometric LS Means: 2.62 ng/mL/mg
[5]; Day 5, 450 mg
  Cmax/Dose Geometric LS Means: 2.32 ng/mL/mg
[5]; Day 5, 600 mg
  Cmax/Dose Geometric LS Means: 2.11 ng/mL/mg
[5]; all tested dose levels
  systemic exposure on Day 5 higher than on Day 1: ~50%
[5]; 300 mg
  AUC(0-t): 9270 ng·h/mL
[5]; 450 mg
  AUC(0-t): 8980 ng·h/mL
Mycoplasma pneumoniae
  Clinical Success n (%): 66 (94.3) n (%)
Moraxella catarrhalis
  Clinical Success n (%): 4 (100.0) n (%)
Klebsiella pneumoniae
  Clinical Success n (%): 10 (76.9) n (%)
Chlamydophila pneumoniae
  Clinical Success n (%): 25 (89.3) n (%)
[6]; 300 mg, Day 1 (n = 2)
  Ae0-24, Mean (CV): 20.37 (8.3) mg
  Fe0-24, Mean (CV): 6.79 (8.3) %
[6]; 300 mg, Day 5 (n = 3)
  Ae0-24, Mean (CV): 26.14 (14.6) mg
  Fe0-24, Mean (CV): 8.71 (14.6) %
[6]; 450 mg, Day 5 (n = 5)
  Ae0-24, Mean (CV): 30.81 (33.0) mg
  Fe0-24, Mean (CV): 6.85 (33.0) %
[6]; 600 mg, Day 1 (n = 1)
  Ae0-24, Mean (CV): 31.96 mg
  Fe0-24, Mean (CV): 5.33%
[6]; 600 mg, Day 5 (n = 4)
  Ae0-24, Mean (CV): 51.82 (14.8) mg
  Fe0-24, Mean (CV): 8.64 (14.8) %
